One molecule from paper PMC5218480 (PLoS ONE, 2017) can be followed below.

This assay relates to MV-4-11 cells. Kind of assay: Gene expression microarray analysis (Affymetrix PrimeView) and GSEA. The format is cell-based, human. More on the design: RFU PODN (11730768_x_at) / Fold change /veh PODN (11730768_x_at) / RFU LINC00158 (11744669_a_at) / Fold change /veh LINC00158 (11744669_a_at) / RFU DUSP10 (11751237_a_at) / Fold change /veh DUSP10 (11751237_a_at) / RFU ID3 (11757404_x_at) / Fold change /veh ID3 (11757404_x_at) / RFU PLEKHG5 (11737974_s_at) / Fold change /veh PLEKHG5 (11737974_s_at) / RFU LRRC4B (11730491_at) / Fold change /veh LRRC4B (11730491_at) / RFU GIMAP4 (11747438_a_at) / Fold change /veh GIMAP4 (11747438_a_at) / RFU KRT8 (11758183_x_at) / Fold change /veh KRT8 (11758183_x_at) / RFU CNN1 (11734310_a_at) / Fold change /veh CNN1 (11734310_a_at) / RFU VPS37D (11726825_at) / Fold change /veh VPS37D (11726825_at) / RFU C10orf10 (11716522_x_at) / Fold change /veh C10orf10 (11716522_x_at) / RFU KIR2DL2 /// KIR2DL4 /// KIR2DL5A /// KIR2DL5B /// KIR2DS1 /// KIR2DS2 /// KIR2DS3 /// KIR2DS4 /// KIR3DL3 /// KIR3DL3 /// KIR3DS1 (11738374_at) / Fold change /veh KIR2DL2 /// KIR2DL4 /// KIR2DL5A /// KIR2DL5B /// KIR2DS1 /// KIR2DS2 /// KIR2DS3 /// KIR2DS4 /// KIR3DL3 /// KIR3DL3 /// KIR3DS1 (11738374_at) / RFU C1QL1 (11718748_at) / Fold change /veh C1QL1 (11718748_at) / RFU TMPRSS4 (11747572_a_at) / Fold change /veh TMPRSS4 (11747572_a_at) / RFU HAMP (11756126_x_at) / Fold change /veh HAMP (11756126_x_at) / RFU RNFT2 (11725882_a_at) / Fold change /veh RNFT2 (11725882_a_at) / RFU NR4A2 (11747474_a_at) / Fold change /veh NR4A2 (11747474_a_at) / RFU ABCC12 (11746883_a_at) / Fold change /veh ABCC12 (11746883_a_at) / RFU TMEM136 (11760407_x_at) / Fold change /veh TMEM136 (11760407_x_at) / RFU CLDN22 /// WWC2 (11732394_at) / Fold change /veh CLDN22 /// WWC2 (11732394_at) / RFU HLA-DPB1 (11760878_x_at) / Fold change /veh HLA-DPB1 (11760878_x_at) / RFU SPINT1 (11716480_a_at) / Fold change /veh SPINT1 (11716480_a_at) / RFU GAP43 (11754022_s_at) / Fold change /veh GAP43 (11754022_s_at) / RFU A4GNT (11735810_at) / Fold change /veh A4GNT (11735810_at) / RFU PRB3 (11715151_x_at) / Fold change /veh PRB3 (11715151_x_at) / RFU TUBB4B (11761932_at) / Fold change /veh TUBB4B (11761932_at) / RFU CAPN14 (11732068_a_at) / Fold change /veh CAPN14 (11732068_a_at) / RFU TMCC2 (11721928_a_at) / Fold change /veh TMCC2 (11721928_a_at) / RFU IRGQ (11745062_a_at) / Fold change /veh IRGQ (11745062_a_at) / RFU FAM174B (11720279_a_at) / Fold change /veh FAM174B (11720279_a_at) / RFU TMPRSS4 (11748680_a_at) / Fold change /veh TMPRSS4 (11748680_a_at) / RFU FAM212B (11763350_a_at) / Fold change /veh FAM212B (11763350_a_at) / RFU PLEKHG5 (11743358_a_at) / Fold change /veh PLEKHG5 (11743358_a_at) / RFU ZSCAN30 (11745921_a_at) / Fold change /veh ZSCAN30 (11745921_a_at) / RFU CMKLR1 (11741424_a_at) / Fold change /veh CMKLR1 (11741424_a_at) / RFU LOC101060620 /// MAPK8IP1 (11723275_at) / Fold change /veh LOC101060620 /// MAPK8IP1 (11723275_at) / RFU SPTSSB (11747773_x_at) / Fold change /veh SPTSSB (11747773_x_at) / RFU PRSS12 (11739890_at) / Fold change /veh PRSS12 (11739890_at) / RFU BIN1 (11741810_x_at) / Fold change /veh BIN1 (11741810_x_at) / RFU WNT11 (11732464_a_at) / Fold change /veh WNT11 (11732464_a_at) / RFU C10orf10 (11716521_a_at) / Fold change /veh C10orf10 (11716521_a_at) / RFU C5orf56 (11738089_at) / Fold change /veh C5orf56 (11738089_at) / RFU CYB561 (11721691_x_at) / Fold change /veh CYB561 (11721691_x_at) / RFU ANKRD19P (11752326_a_at) / Fold change /veh ANKRD19P (11752326_a_at) / RFU OR2T12 /// OR2T33 /// OR2T8 (11738714_s_at) / Fold change /veh OR2T12 /// OR2T33 /// OR2T8 (11738714_s_at) / RFU VCAN (11748164_a_at) / Fold change /veh VCAN (11748164_a_at) / RFU JSRP1 (11732532_at) / Fold change /veh JSRP1 (11732532_at) / RFU KRTAP10-11 (11738290_x_at) / Fold change /veh KRTAP10-11 (11738290_x_at) / RFU MYO3A (11730013_a_at) / Fold change /veh MYO3A (11730013_a_at) / RFU EBF3 (11725865_a_at) / Fold change /veh EBF3 (11725865_a_at) / RFU CAMK2N1 (11719241_x_at) / Fold change /veh CAMK2N1 (11719241_x_at) / RFU C5orf56 (11738088_a_at) / Fold change /veh C5orf56 (11738088_a_at) / RFU OLFML3 (11715873_a_at) / Fold change /veh OLFML3 (11715873_a_at) / RFU LOC100653217 /// NTM (11731650_a_at) / Fold change /veh LOC100653217 /// NTM (11731650_a_at) / RFU MAPK11 (11762145_a_at) / Fold change /veh MAPK11 (11762145_a_at) / RFU FIZ1 (11724087_x_at) / Fold change /veh FIZ1 (11724087_x_at) / RFU OASL (11726364_x_at) / Fold change /veh OASL (11726364_x_at) / RFU SOX15 (11748057_x_at) / Fold change /veh SOX15 (11748057_x_at) / RFU CD79A (11719716_a_at) / Fold change /veh CD79A (11719716_a_at) / RFU HIST1H1D (11736915_at) / Fold change /veh HIST1H1D (11736915_at) / RFU CASKIN2 (11723855_a_at) / Fold change /veh CASKIN2 (11723855_a_at) / RFU LOC730098 (11760151_x_at) / Fold change /veh LOC730098 (11760151_x_at) / RFU OR4N2 (11742367_at) / Fold change /veh OR4N2 (11742367_at) / RFU PRRT2 (11749266_a_at) / Fold change /veh PRRT2 (11749266_a_at) / RFU SNX32 (11753110_a_at) / Fold change /veh SNX32 (11753110_a_at) / RFU CDHR5 (11726645_a_at) / Fold change /veh CDHR5 (11726645_a_at) / RFU RCAN1 (11760418_a_at) / Fold change /veh RCAN1 (11760418_a_at) / RFU FAM167A (11723789_a_at) / Fold change /veh FAM167A (11723789_a_at) / RFU FAM26E (11764081_at) / Fold change /veh FAM26E (11764081_at) / RFU ISYNA1 (11749810_s_at) / Fold change /veh ISYNA1 (11749810_s_at) / RFU ACY1 (11761880_at) / Fold change /veh ACY1 (11761880_at) / RFU 11764098_at / Fold change /veh 11764098_at / RFU SAMD14 (11745864_x_at) / Fold change /veh SAMD14 (11745864_x_at) / RFU NPB (11741838_a_at) / Fold change /veh NPB (11741838_a_at) / RFU TMPRSS6 (11731388_a_at) / Fold change /veh TMPRSS6 (11731388_a_at) / RFU KRTAP10-2 (11738614_at) / Fold change /veh KRTAP10-2 (11738614_at) / RFU ARHGAP8 /// PRR5-ARHGAP8 (11727945_x_at) / Fold change /veh ARHGAP8 /// PRR5-ARHGAP8 (11727945_x_at) / RFU KRTAP5-7 /// NADSYN1 (11734609_at) / Fold change /veh KRTAP5-7 /// NADSYN1 (11734609_at) / RFU RASL12 (11751679_a_at) / Fold change /veh RASL12 (11751679_a_at) / RFU CDKN2B (11736163_a_at) / Fold change /veh CDKN2B (11736163_a_at) / RFU PRF1 (11729649_at) / Fold change /veh PRF1 (11729649_at) / RFU, ZNF638 /// ZNF638-IT1 / Fold change vs veh, ZNF638 /// ZNF638-IT1 / RFU, PANK3 / Fold change vs veh, PANK3 / RFU, SH3YL1 / Fold change vs veh, SH3YL1 / RFU, ZEB2 / Fold change vs veh, ZEB2 / RFU, NRIP1 / Fold change vs veh, NRIP1 / RFU, PTTG1IP / Fold change vs veh, PTTG1IP / RFU, CAPN2 / Fold change vs veh, CAPN2 / RFU, MED14 / Fold change vs veh, MED14 / RFU, SNORA58 / Fold change vs veh, SNORA58 / RFU, C1orf63 / Fold change vs veh, C1orf63 / RFU, LRRFIP1 / Fold change vs veh, LRRFIP1 / RFU, NDUFAF7 / Fold change vs veh, NDUFAF7 / RFU, SLC12A2 / Fold change vs veh, SLC12A2 / RFU, IBTK / Fold change vs veh, IBTK / RFU, ESF1 / Fold change vs veh, ESF1 / Fold change vs veh, TMEM50B / RFU, TAOK1 / Fold change vs veh, TAOK1 / RFU, ACBD3 / Fold change vs veh, ACBD3 / RFU, TMA16 / Fold change vs veh, TMA16 / RFU, RWDD3 / Fold change vs veh, RWDD3 / RFU, BCAT1 / Fold change vs veh, BCAT1 / RFU, EDEM3 / Fold change vs veh, EDEM3 / RFU, TMEM33 / Fold change vs veh, TMEM33 / RFU, WDR75 / Fold change vs veh, WDR75 / RFU, AHCTF1 / Fold change vs veh, AHCTF1 / RFU, TFRC / Fold change vs veh, TFRC / RFU, ZDHHC17 / Fold change vs veh, ZDHHC17 / RFU, NOM1 / Fold change vs veh, NOM1 / RFU, ARL8B / Fold change vs veh, ARL8B / RFU, ZBTB11 / Fold change vs veh, ZBTB11 / RFU, TAMM41 / Fold change vs veh, TAMM41 / RFU, KIAA1704 /// LOC100996395 / Fold change vs veh, KIAA1704 /// LOC100996395 / RFU, ING1 / Fold change vs veh, ING1 / RFU, TRMT61B / Fold change vs veh, TRMT61B / RFU, FUBP3 / Fold change vs veh, FUBP3 / RFU, TP53 / Fold change vs veh, TP53 / RFU, TNKS2 / Fold change vs veh, TNKS2 / RFU, ZFP14 / Fold change vs veh, ZFP14 / RFU, ACTR2 / Fold change vs veh, ACTR2 / RFU, PPP3R1 / Fold change vs veh, PPP3R1 / RFU, PIK3R1 / Fold change vs veh, PIK3R1 / RFU, HNRNPA1 / Fold change vs veh, HNRNPA1 / RFU, RNF170 / Fold change vs veh, RNF170 / RFU, ZNF28 / Fold change vs veh, ZNF28 / RFU, RNGTT / Fold change vs veh, RNGTT / RFU, OGT / Fold change vs veh, OGT / RFU, BRD1 / Fold change vs veh, BRD1 / RFU, MARS / Fold change vs veh, MARS / RFU, ZNF655 / Fold change vs veh, ZNF655 / RFU, FAHD1 / Fold change vs veh, FAHD1 / RFU, BDP1 / Fold change vs veh, BDP1 / RFU, LRRCC1 / Fold change vs veh, LRRCC1 / RFU, ARID1A / Fold change vs veh, ARID1A / RFU, ZNF146 / Fold change vs veh, ZNF146 / RFU, ZNF330 / Fold change vs veh, ZNF330 / RFU, GPN3 / Fold change vs veh, GPN3 / RFU, C9orf123 / Fold change vs veh, C9orf123 / RFU, N4BP2L2 / Fold change vs veh, N4BP2L2 / RFU, ARFIP1 / Fold change vs veh, ARFIP1 / RFU, FAM179B / Fold change vs veh, FAM179B / RFU, BCL10 / Fold change vs veh, BCL10 / RFU, UHRF1BP1L / Fold change vs veh, UHRF1BP1L / RFU, BET1 / Fold change vs veh, BET1 / RFU, CNOT2 / Fold change vs veh, CNOT2 / RFU, ZNF268 / Fold change vs veh, ZNF268 / Fold change vs veh, ZNF507 / RFU, DGCR2 / Fold change vs veh, DGCR2 / RFU, WDSUB1 / Fold change vs veh, WDSUB1 / Fold change vs veh, HSP90B1 /// MIR3652 / RFU, ADSS / Fold change vs veh, ADSS / RFU, GK / Fold change vs veh, GK / RFU, ZNF148 / Fold change vs veh, ZNF148 / RFU, TAF9 / Fold change vs veh, TAF9 / RFU, SLC1A5 / Fold change vs veh, SLC1A5 / RFU, SLMO2 / Fold change vs veh, SLMO2 / RFU, ABCC4 / Fold change vs veh, ABCC4 / RFU, LOC101060439 /// RAP1B / Fold change vs veh, LOC101060439 /// RAP1B / RFU, RFX7 / Fold change vs veh, RFX7 / RFU, GTPBP10 / Fold change vs veh, GTPBP10 / RFU, CNEP1R1 / Fold change vs veh, CNEP1R1 / RFU, BIVM-ERCC5 /// ERCC5 / Fold change vs veh, BIVM-ERCC5 /// ERCC5 / RFU, ILF3 / Fold change vs veh, ILF3 / RFU 11762660_at / Fold change /veh 11762660_at / RFU VCAN (11757783_s_at) / Fold change /veh VCAN (11757783_s_at) / RFU DDX43 (11728927_at) / Fold change /veh DDX43 (11728927_at) / RFU KRT8 (11758188_x_at) / Fold change /veh KRT8 (11758188_x_at) / RFU NKD1 (11759106_at) / Fold change /veh NKD1 (11759106_at) / RFU SRD5A1 (11742802_a_at) / Fold change /veh SRD5A1 (11742802_a_at) / RFU TPSAB1 /// TPSB2 (11721975_s_at) / Fold change /veh TPSAB1 /// TPSB2 (11721975_s_at) / RFU GSTM3 (11746129_a_at) / Fold change /veh GSTM3 (11746129_a_at) / RFU IL23R (11737362_x_at) / Fold change /veh IL23R (11737362_x_at) / RFU TMEM51 (11727254_a_at) / Fold change /veh TMEM51 (11727254_a_at) / RFU PIWIL2 (11732686_x_at) / Fold change /veh PIWIL2 (11732686_x_at) / RFU ORM1 (11744905_x_at) / Fold change /veh ORM1 (11744905_x_at) / RFU CCDC152 (11743942_at) / Fold change /veh CCDC152 (11743942_at) / RFU ECM1 (11717891_a_at) / Fold change /veh ECM1 (11717891_a_at) / RFU IL23R (11748794_a_at) / Fold change /veh IL23R (11748794_a_at) / RFU TNFAIP8L3 (11732012_x_at) / Fold change /veh TNFAIP8L3 (11732012_x_at) / RFU MBOAT4 (11741988_at) / Fold change /veh MBOAT4 (11741988_at) / RFU 11764193_at / Fold change /veh 11764193_at / RFU TMEM53 (11763286_at) / Fold change /veh TMEM53 (11763286_at) / RFU MAGEB2 (11727129_at) / Fold change /veh MAGEB2 (11727129_at) / RFU TMEM200A (11744735_a_at) / Fold change /veh TMEM200A (11744735_a_at) / RFU CCDC152 (11751479_a_at) / Fold change /veh CCDC152 (11751479_a_at) / RFU FAM211A (11726209_a_at) / Fold change /veh FAM211A (11726209_a_at) / RFU RGS16 (11746705_a_at) / Fold change /veh RGS16 (11746705_a_at) / RFU VCAN (11755009_s_at) / Fold change /veh VCAN (11755009_s_at) / RFU RHOB (11743442_s_at) / Fold change /veh RHOB (11743442_s_at) / RFU RGS16 (11720943_a_at) / Fold change /veh RGS16 (11720943_a_at) / RFU RGS16 (11720944_at) / Fold change /veh RGS16 (11720944_at) / RFU, VPS4B / Fold change vs veh, VPS4B / RFU, CREB1 / Fold change vs veh, CREB1 / RFU, DNAJC13 / Fold change vs veh, DNAJC13 / RFU, GNAQ / Fold change vs veh, GNAQ / RFU, CDK5R1 / Fold change vs veh, CDK5R1 / RFU, ZRANB3 / Fold change vs veh, ZRANB3 / RFU, CUL4A / Fold change vs veh, CUL4A / RFU, CCNY / Fold change vs veh, CCNY / RFU, UFL1 / Fold change vs veh, UFL1 / RFU, COG3 / Fold change vs veh, COG3 / RFU, DIAPH2 / Fold change vs veh, DIAPH2 / RFU, SKA2 / Fold change vs veh, SKA2 / RFU, AFF3 / Fold change vs veh, AFF3 / RFU, LMF1 / Fold change vs veh, LMF1 / RFU, IPO11 / Fold change vs veh, IPO11 / RFU, DFFB / Fold change vs veh, DFFB / RFU, FOXP1 / Fold change vs veh, FOXP1 / RFU, CARD8 / Fold change vs veh, CARD8 / RFU, STRN3 / Fold change vs veh, STRN3 / RFU, ADK / Fold change vs veh, ADK / RFU, RASSF2 / Fold change vs veh, RASSF2 / RFU, WIPF1 / Fold change vs veh, WIPF1 / RFU, LARP1B / Fold change vs veh, LARP1B / RFU, RASA1 / Fold change vs veh, RASA1 / RFU, RB1 / Fold change vs veh, RB1 / RFU, PPFIA1 / Fold change vs veh, PPFIA1 / RFU, MAT2A / Fold change vs veh, MAT2A / RFU, CCT5 / Fold change vs veh, CCT5 / RFU, WDR92 / Fold change vs veh, WDR92 / RFU, CUX1 / Fold change vs veh, CUX1 / RFU, TTC7A / Fold change vs veh, TTC7A / RFU, TMEM135 / Fold change vs veh, TMEM135 / RFU, DEPTOR / Fold change vs veh, DEPTOR / RFU, CPM / Fold change vs veh, CPM / RFU, DNAJB6 / Fold change vs veh, DNAJB6 / RFU, CACNA2D3 / Fold change vs veh, CACNA2D3 / RFU, DTX4 / Fold change vs veh, DTX4 / RFU, TFCP2 / Fold change vs veh, TFCP2 / RFU, GMCL1 /// GMCL1P1 / Fold change vs veh, GMCL1 /// GMCL1P1 / RFU, AEBP2 / Fold change vs veh, AEBP2 / RFU, SNHG1 /// SNORD22 /// SNORD25 /// SNORD26 /// SNORD27 /// SNORD28 /// SNORD29 /// SNORD31 / Fold change vs veh, SNHG1 /// SNORD22 /// SNORD25 /// SNORD26 /// SNORD27 /// SNORD28 /// SNORD29 /// SNORD31 / Fold change (Aza/veh), C12orf56 (ProbeSet 11735607_a_at) / Fold change (ACY-1035/veh), C12orf56 (ProbeSet 11735607_a_at) / Fold change (Aza/veh), FGFR1OP (ProbeSet 11751329_s_at) / Fold change (ACY-1035/veh), FGFR1OP (ProbeSet 11751329_s_at) / Fold change (Aza/veh), VPS36 (ProbeSet 11739960_a_at) / Fold change (ACY-1035/veh), VPS36 (ProbeSet 11739960_a_at) / RFU SYPL1 (11715823_x_at) / Fold change /veh SYPL1 (11715823_x_at) / RFU IGFBP7 (11715501_s_at) / Fold change /veh IGFBP7 (11715501_s_at) / RFU REEP3 (11722064_at) / Fold change /veh REEP3 (11722064_at) / RFU IGLL1 (11728026_x_at) / Fold change /veh IGLL1 (11728026_x_at): dose or concentration left out as unconfirmed. The settings on record: gene FGFR1OP; Azacitidine vs DMSO; LIST F.

For `Nc1ncn([C@@H]2O[C@H](CO)[C@@H](O)[C@H]2O)c(=O)n1` [azacitidine], the “Fold change (Aza/veh), FGFR1OP (ProbeSet 11751329_s_at)” value is 0.95.
